{"source": "patent EP2951180B1", "about": "“2,6,7,8 SUBSTITUTED PURINES AS HDM2 INHIBITORS” (Merck Sharp & Dohme Corp., priority 2013, dated 2014)", "biological_target": "T1, HDM2 (Homo sapiens, UniProt Q00987)", "T1 construct": "Thioredoxin (N); made in house; host or cells: E. coli strain BL21(DE3)Rosetta", "T1 sequence (Q00987 17-125)": "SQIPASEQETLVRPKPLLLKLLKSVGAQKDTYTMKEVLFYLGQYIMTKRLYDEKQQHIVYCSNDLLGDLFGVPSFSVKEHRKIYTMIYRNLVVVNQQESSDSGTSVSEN", "assay": "HDM2 FRET assay (inhibition of binding of FITC labeled p53-pocket peptide to HDM2)", "conditions": "for IC50: read-out: FRET IC50", "description": "Methods: An HDM2 FRET assay was developed to assess the compounds' inhibitory activity towards binding of p53 protein. […] Protein was purified using Ni-affinity chromatography, followed by size exclusion chromatography using Superdex 75 26/60 column. […] The HDM2 assay buffer contained 1x Phosphate Buffered Saline (Invitrogen, Cat#14190), 0.01% BSA (Jackson ImmunoResearch, Cat# 001-000-162), 0.01% Tween-20. In the 1X assay buffer recombinant HDM2 protein, peptide and Lumi4-Tb Cryptate-conjugate mouse anti-6xHis antibody (cisbio, Cat#Tb61HISTLB) were added and transferred to ProxiPlate PLUS (PerkinElmer, Cat#6008269), containing compounds so that final DMSO concentration is 0.1% . Final concentrations of reagents in the assay wells are 0.5 nM HDM2, 0.25nM anti HIS (Tb label) antibody and 3nM peptide. […] Ratio of em520/em495 was used to calculate %inhibition and to obtain IC50 with 4-parameter logistic equation.\nIC50 DETERMINATIONS: Dose-response curves were plotted from the inhibition data, from 10 point serial dilutions of inhibitory compounds. Concentration of compound was plotted against em520/Cem495 ratio signal. To generate IC50 values, the dose-response curves were fitted to a standard sigmoidal curve and IC50 values were derived by nonlinear regression analysis.", "key": {"[1]": {"conditions": "0.5 nM HDM2 (residues 17 to 125), 3nM peptide, two hour incubation at room temperature"}}, "note": "Where two headings read alike, the source gives them in different places.", "data": [{"smiles": "CC(=O)N1CCN(c2nc3nc(-c4noc(=O)[nH]4)nc(N[C@H](C)C4CCC4)c3n2C[C@H]2CC[C@H](C)CC2)[C@H](c2ccccc2)C1", "note": "[Example 17.10, 3-{8-[(2R)-4-acetyl-2-phenylpiperazin-1-yl]-6-{[(1R)-1-cyclobutylethyl]amino}-7-[(trans-4-methylcyclohexyl)methyl]-7H-purin-2-yl}-1,2,4-oxadiazol-5(4H)-one]", "values": [{"measurement": "IC50", "setting": "Table 17.2", "result": 0.215, "unit": "nM"}]}, {"smiles": "C[C@@H](Nc1nc(C(=O)O)nc2nc(N3CCCCC3c3cccc(F)c3)n(C[C@H]3CC[C@H](C)CC3)c12)C1CCC1", "note": "(stereo partly drawn) [Example 11.16, 6-{[(1R)-1-cyclobutylethyl]amino}-8-[2-(3-fluorophenyl)piperidin-1-yl]-7-[(trans-4-methylcyclohexyl)methyl]-7H-purine-2-carboxylic acid]", "values": [{"measurement": "IC50", "setting": "Table 11", "result": 2.84, "unit": "nM"}]}, {"smiles": "C[C@@H](Nc1nc(-c2n[nH]c(=O)o2)nc2nc(N3CCOC4CCCCC43)n(C[C@H]3CC[C@H](C)CC3)c12)C1CCC1", "note": "(single isomer, unassigned) [Example 11.126]", "values": [{"measurement": "IC50", "setting": "Table 11", "result": 1.46, "unit": "nM"}]}, {"smiles": "Cc1cccc(-c2nc3nc(C(=O)O)nc(N4CCCC4C(C)C)c3n2Cc2ccc(C(F)(F)F)cc2)c1", "note": "(stereo not shown) [Example 6.85, 6-[2-(1-methylethyl)pyrrolidin-1-yl]-8-(3-methylphenyl)-7-[4-(trifluoromethyl)benzy 1]-7H-purine-2-carboxylic acid]", "values": [{"measurement": "IC50", "setting": "Table 6", "result": 723, "unit": "nM"}]}, {"smiles": "CC(C)c1ccnc(-c2nc3nc(CNC(=O)C(F)(F)F)nc(N[C@H](C)C4CCC4)c3n2C[C@H]2CC[C@H](C)CC2)c1", "note": "[Example 12.10, N-[(6-{[(1R)-1-cyclobutylethyl]amino}-7-[(trans-4-methylcyclohexyl)methyl]-8-[4-(propan-2-yl)pyridin-2-yl]-7H-purin-2-yl)methyl]-2,2,2-trifluoroacetamide]", "values": [{"measurement": "inhibition at 1 µM", "setting": "read-out: % inh. at 1000 nM, at 1000 nM compound", "result": 30, "unit": "%"}]}, {"smiles": "C[C@@H](Nc1nc(-c2noc(=O)[nH]2)nc2nc(N3CCOCC3c3ccccc3Cl)n(C[C@H]3CC[C@H](C)CC3)c12)C1CCC1", "note": "(single isomer, unassigned) [Example 11.117]", "values": [{"measurement": "IC50", "setting": "Table 11", "result": 3.77, "unit": "nM"}]}, {"smiles": "CC(C)C[C@@H]1CCCCN1c1nc2nc(-c3noc(=O)[nH]3)nc(N[C@H](C)C3CCC3)c2n1C[C@H]1CC[C@H](C)CC1", "note": "[Example 11.84, 3-(6-{[(1R)-1-cyclobutylethyl]amino}-7-[(trans-4-methylcyclohexyl)methyl]-8-[(2S)-2-(2-methylpropyl)piperidin-1-yl]-7H-purin-2-yl)-1,2,4-oxadiazol-5(4H)-one]", "values": [{"measurement": "IC50", "setting": "Table 11", "result": 3.07, "unit": "nM"}]}, {"smiles": "C[C@@H]1CN(C(=O)C2CC2)CCN1c1nc2nc(-c3noc(=O)[nH]3)nc(N[C@H](C)C3CCC3)c2n1C[C@H]1CC[C@H](C)CC1", "note": "[Example 17.16, 3-(6-{[(1R)-1-cyclobutylethyl]amino}-8-[(2R)-4-(cyclopropylcarbonyl) -2-methylpiperazin-1-yl]-7-[(trans-4-methylcyclohexyl)methyl]-7H-purin-2-yl)-1,2,4-oxadiazol-5(4H)-one]", "values": [{"measurement": "IC50", "setting": "Table 17.2", "result": 1.22, "unit": "nM"}]}, {"smiles": "CC(C)S(=O)(=O)c1nc(N[C@H](C)C2CCC2)c2c(n1)nc(N1CCOC[C@H]1c1ccccc1)n2C[C@H]1CC[C@H](C)CC1", "note": "[Example 14.6, N-[(1R)-1-cyclobutylethyl]-7-[(trans-4-methylcyclohexyl)methyl]-2-[(1-methylethyl)sulfonyl]-8-[(3R)-3-phenylmorpholin-4-yl]-7H-purin-6-amine]", "values": [{"measurement": "IC50", "setting": "[1]", "result": 21.1, "unit": "nM"}]}, {"smiles": "CC(C)C1CCCCN1c1nc2nc(C(=O)O)nc(N[C@H](C)C3CCC3)c2n1Cc1ccc(C(F)(F)F)cc1", "note": "(stereo partly drawn) [Example 9.119, 6-{[(1R)-1-cyclobutylethyl]amino}-8-[2-(1-methylethyl)piperidin-1-yl]-7-[4-(trifluoromethyl)benzyl]-7H-purine-2-carboxylic acid]", "values": [{"measurement": "IC50", "setting": "Table 9", "result": 9.16, "unit": "nM"}]}, {"smiles": "Cc1cccc(-c2nc3nc(C(=O)O)nc(N4CCCC4C(C)(C)C)c3n2Cc2ccc(C(F)(F)F)cc2)c1", "note": "(stereo not shown) [Example 6.87, 6-(2-tert-butylpyrrolidin-1-yl)-8-(3-methylphenyl)-7-[4-(trifluoromethyl)benzyl]-7H-purine-2-carboxylic acid]", "values": [{"measurement": "inhibition at 1 µM", "setting": "read-out: inh. at 1000 nM (FRET)", "result": 43, "unit": "%"}]}, {"smiles": "CC1CS(=O)(=O)CCN1c1nc2nc(-c3noc(=O)[nH]3)nc(N[C@H](C)C3CCC3)c2n1C[C@H]1CC[C@H](C)CC1", "note": "(stereo partly drawn) [Example 11.124, 3-[6-{[(1R)-1-cyclobutylethyl]amino}-7-[(trans-4-methylcyclohexyl)methyl]-8-(3-methyl-1,1-dioxidothiomorpholin-4-yl)-7H-purin-2-yl]-1,2,4-oxadiazol-5(2H)-one]", "values": [{"measurement": "IC50", "setting": "Table 11", "result": 9.62, "unit": "nM"}]}, {"smiles": "Cc1cccc(-c2nc3nc(C(=O)O)nc(N[C@H](CCC(N)=O)C4CCC4)c3n2Cc2ccc(C(F)(F)F)cc2)c1", "note": "[Example 7.12, 6-{[(1R)-4-amino-1-cyclobutyl-4-oxobutyl]amino}-8-(3-methylphenyl)-7-[4-(trifluoromethyl)benzyl]-7H-purine-2-carboxylic acid]", "values": [{"measurement": "IC50", "setting": "Table 7", "result": 55.3, "unit": "nM"}]}, {"smiles": "C[C@H]1CC[C@H](Cn2c(N3CCOC[C@H]3c3ccccc3)nc3nc(-c4n[nH]c(=O)o4)nc(-c4cncc(Cl)c4)c32)CC1", "note": "[Example 16.35, 5-{6-(5-chloropyridin-3-yl)-7-[(trans-4-methylcyclohexyl)methyl]-8-[(3R)-3-phenylmorpholin-4-yl]-7H-purin-2-yl} -1,3,4-oxadiazol-2(3H)-one]", "values": [{"measurement": "IC50", "setting": "[1]", "result": 0.824, "unit": "nM"}]}, {"smiles": "C[C@@H](Nc1nc(-c2noc(=O)[nH]2)nc2nc(N3CCC(F)(F)CC3)n(C[C@H]3CC[C@H](C)CC3)c12)C1CCC1", "note": "[Example 11.80, 3-(6-{[(1R)-1-cyclobutylethyl]amino}-8-(4,4-difluoropiperidin-1-yl)-7-[(trans-4-methylcyclohexyl)methyl]-7H-purin-2-yl)-1,2,4-oxadiazol-5(2H)-one]", "values": [{"measurement": "IC50", "setting": "Table 11", "result": 25.9, "unit": "nM"}]}, {"smiles": "C[C@@H](Nc1nc(C(=O)O)nc2nc(N3CCCC3c3ccccc3)n(Cc3ccc(C(F)(F)F)cc3)c12)C1CCC1", "note": "(single isomer, unassigned) [Example 9.65]", "values": [{"measurement": "IC50", "setting": "Table 9", "result": 11.4, "unit": "nM"}]}, {"smiles": "C[C@@H](Nc1nc(-c2noc(=O)[nH]2)nc2nc(N(C)CC(C)(C)C)n(C[C@H]3CC[C@H](C)CC3)c12)C1CCC1", "note": "[Example 11.43, 3-(6-{[(1R)-1-cyclobutylethyl]amino}-8-[(2,2-dimethylpropyl)(methyl)amino]-7-[(trans-4-methylcyclohexyl)methyl]-7H-purin-2-yl)-1,2,4-oxadiazol-5(2H)-one]", "values": [{"measurement": "IC50", "setting": "Table 11", "result": 19.4, "unit": "nM"}]}, {"smiles": "Cc1cccc(-c2nc3nc(C(=O)O)nc(N[C@H](C)C4CCC4)c3n2Cc2ccc(Br)cc2)c1", "note": "[Example 6.7, 7-(4-bromobenzyl)-6-{[(1R)-1-cyclobutylethyl]amino}-8-(3-methylphenyl)-7H-purine-2-carboxylic acid]", "values": [{"measurement": "IC50", "setting": "Table 6", "result": 75.7, "unit": "nM"}]}, {"smiles": "Cc1nc(C(C)(F)c2nc3nc(-c4noc(=O)[nH]4)nc(N[C@H](C)C4CCC4)c3n2C[C@H]2CC[C@H](C)CC2)c(C)s1", "note": "(single isomer, unassigned) [Example 22.73]", "values": [{"measurement": "IC50", "setting": "Table 22", "result": 4.06, "unit": "nM"}]}, {"smiles": "CCC[C@@H](Nc1nc(C(=O)O)nc2nc(-c3cccc(C)c3)n(Cc3ccc(C(F)(F)F)cc3)c12)C1CCC1", "note": "[Example 7.5, 6-{[(1R)-1-cyclobutylbutyl]amino}-8-(3-methylphenyl)-7-[4-(trifluoromethyl)benzyl]-7H-purine-2-carboxylic acid]", "values": [{"measurement": "IC50", "setting": "Table 7", "result": 142, "unit": "nM"}]}, {"smiles": "C[C@H]1CC[C@H](Cn2c(C3(c4ccccc4)CCC3)nc3nc(-c4n[nH]c(=O)o4)nc(-c4cc(Cl)c[n+]([O-])c4)c32)CC1", "note": "[Example 20.13, 5-[6-(5-chloro-1-oxidopyridin-3-yl)-7-[(trans-4-methylcyclohexyl)methyl]-8-(1-phenylcyclobutyl)-7H-purin-2-yl]-1,3,4-oxadiazol-2(3H)-one]", "values": [{"measurement": "IC50", "setting": "Table 20", "result": 22.8, "unit": "nM"}]}, {"smiles": "C[C@@H](Nc1nc(C(=O)O)nc2nc(N(C)Cc3ccccc3)n(Cc3ccc(C(F)(F)F)cc3)c12)C1CCC1", "note": "[Example 9.14, 8-[benzyl(methyl)amino]-6-{[(1R)-1-cyclobutylethyl]amino}-7-[4-(trifluoromethyl)benzyl]-7H-purine-2-carboxylic acid]", "values": [{"measurement": "IC50", "setting": "Table 9", "result": 5.62, "unit": "nM"}]}, {"smiles": "CC(C)CC1COCCN1c1nc2nc(-c3noc(=O)[nH]3)nc(N[C@H](C)C3CCC3)c2n1Cc1ccc(C(F)(F)F)cc1", "note": "(stereo partly drawn) [Example 9.101, 3-(6-{[(1R)-1-cyclobutylethyl]amino}-8-[3-(2-methylpropyl)morpholin-4-yl]-7-[4-(trifluoromethyl)benzyl]-7H-purin-2-yl)-1,2,4-oxadiazol-5(4H)-one]", "values": [{"measurement": "IC50", "setting": "Table 9", "result": 9.8, "unit": "nM"}]}, {"smiles": "CC(c1ccccn1)N(C)c1nc2nc(-c3noc(=O)[nH]3)nc(N[C@H](C)C3CCC3)c2n1Cc1ccc(C(F)(F)F)c(F)c1", "note": "(stereo partly drawn) [Example 9.72, 3-(6-{[(1R)-1-cyclobutylethyl]amino}-7-[3-fluoro-4-(trifluoromethyl)benzyl]-8-[methyl(1-pyridin-2-ylethyl)amino]-7H-purin-2-yl)-1,2,4-oxadiazol-5(4H)-one]", "values": [{"measurement": "IC50", "setting": "Table 9", "result": 4.64, "unit": "nM"}]}, {"smiles": "CC(C)C1CCCN(c2nc3nc(C(=O)O)nc(N[C@H](C)C4CCC4)c3n2Cc2ccc(C(F)(F)F)cc2)C1", "note": "(stereo partly drawn) [Example 9.46, 6-{[(1R)-1-cyclobutylethyl]amino}-8-[3-(1-methylethyl)piperidin-1-yl]-7-[4-(trifluoromethyl)benzyl]-7H-purine-2-carboxylic acid]", "values": [{"measurement": "IC50", "setting": "Table 9", "result": 26.2, "unit": "nM"}]}]}
